Assay results taken from US20250161238A1, “NMDAR Antagonists Prevent Ageing and Aging-Associated Conditions and Diseases Through Increasing 20S Proteasome Activity” (priority 2022, published 2025).

Experiments:
[1] = test system: Ub-YFP; experiment: Ub-YFP degredation in Hep3B cells; type: cell-based, human
Procedure: This finding was supported by the following experiments; First, a model was developed to find inhibitor or inhibitors for the ubiquitin dependent degredation in the Hep3B cell line. For this purpose Hep3B cell expressing Ub-YFP genome were prepared. Ub-YFP is a system which was used to detect the ubiquitin dependent proteasome activity (26S). It is also known that Ub-YFP is not affected by the ubiquitin-independent protesome system. In further experiments, we tested molecules which are involved in different parts of the ubiquitination processes including PYR41 (Ubiquitin-activating enzyme (E1) inhibitor), NCC697923 (UBE2N E2 ubiquitin-conjugating enzyme inhibitor), SMER3 (ubiquitin ligase E3 inhibitor), SZL-P1-411 (Skp2 E3 ligase inhibitor), SKPIN C1 (Skp2 E3 ligase inhibitor), P005091 (USP7 inhibitor), Vialin A (USP4 and USP5 inhibitor), Spautin A (USP10 and USP13 inhibitor), ML 323 (USP1-UAF1 inhibitor), IU1 (USP14 inhibitor), and Mg132 (protesome inhibitor) for the inhibition of Ub-YFP degredation. […] MG132 was used as the inhibitor of the protesome activity (FIG. 12A). In the next experiment YFP protein amount was investigated in the presence of ketamin, Pyr41, and ketamin and Pyr41 together by western blot in Hep3B cell.
The Ub-R-YFP open-reading frame was obtained from Ub-R-YFP was a gift from Nico Dantuma (Addgene plasmid #11948). Ub-R-YFP sequence was obtained from the original vector by cutting the plasmid with NheI and NotI enzymes (Thermo Scientific), blunt ended and was cloned into pBSK-clo2D which is cut by EcoRV restriction enzyme (SibEnzyme, E059). Ub-R-YFP was obtained from the pBSK-clo2D vector by cutting with BamHI. pLV-EF1a-IRES-Puro (85132-Addgene) vector was cut by BamHI restriction enzyme and dephospharylated and ligated with Ub-R-YFP. After the orientation construct was determined, pLV-EF1a-IRES-Puro-Ub-R-YFP was reproduced in large volumes using DH5a E. Coli.
Hek293T cells were transfected with the pLV-EF1a-IRES-Puro-Ub-R-YFP and helper vectors psPAX2 and pMD2.G using Calcium Phosphate Mammalian Transfection Kit (631312-Takara bio). After 48 h supernatants containing Ub-R-YFP lentivirus were collected and target cells were infected under the presence of […] polybrene. After 24 hours, the media of the cells were replaced with media containing […] puromycin for 6 days. Then living cells were combined in a pool. Infected clones were maintained in the presence of 250 ng/ml puromycin.

[2] = test system: C. elegans; experiment: C. elegans life span in liquid medium; type: in vivo; conditions: for C. elegans survived compared to control: 20th day
Source text: C. elegans is a free-living multicellular organism. Clear age-dependent human like physiological changes at the tissue, cellular, and molecular levels make C. elegans a valuable model for research in the field of aging and life span studies (Ambros, 2006). Accordingly, it was investigated how NMDAR blockers affact the life span of C. elegans. The use of drugs in the C. elegans related studies has been applied in different ways. The drugs were either applied to the LB medium with bacteria OP50, before spreading onto Nematode Growth Medium (NGM) plates (LB medium method), or to the NGM with live (NGM live method) or dead bacteria (NGM dead method), or spotting the drug solution to the surface of plates directly (spot dead method), or growing the worms in liquid medium (liquid growing method) (Ambros, 2006). Liquid growing method achieved the best absorption efficiency in worms. […] Therefore in this invention all the experiements related with the C. elegans were completed in liquid medium. In order to understand the effectiveness of the drug according to the onset time, the memantin was added to the medium on the 1st, 7th and 14th days in a 24-day period and the number of viable worms were determined on the 20nd day.
C. elegans strains used in this study were gift from Dr. Deniz Aksoy, Faculty of Sciency-Trakya University-Turkey. Preparation of liquid culture of C. elegans was prepared according to the Stiernagle, T. Maintenance of C. elegans (Feb. 11, 2006), WormBook, http://www.wormbook.org. Animals were grown on nematode growth medium (NGM) (50 mM NaCl, 2% agar, […], 5 mg/L cholesterol, 1.0 mM CaCl2), 1.0 mM MgSO4, 25 mM potassium phosphate, pH 6.0) seeded with Escherichia coli OP50 at 20° C. using standard methods.
For this purpose, the method described by Sulston, J. & Hodgkin, J. was followed. (See, Methods. in: Wood, W. B. (ed.) The Nematode Caenorhabditis elegans. (1988) Cold Spring Harbor Laboratory, Cold Spring Harbor: 587-606.; Solis, G. M., Petrascheck, M. Measuring Caenorhabditis elegans Life Span in 96 Well Microtiter Plates. 2011, J. Vis. Exp. (49)) Two-3 days old worms with eggs growing in NGM were transferred to 50 ml flask using S-medium. After centrifugation, worms were treated with 20% Alkaline Hypochlorite Solution and the eggs were transferred to the S-medium after washing with S-medium.
To sterilize the animals 300 μL of a 6 mM Fluorodeoxyuridine (FUDR) stock solution was added to 10 ml medium. During the monitoring of their life span, the worms were kept by shaking at a constant speed of 200 rpm. Locomotor activities of the worms were recorded and available.

[3] = test system: oxidized proteins; experiment: Oxidation status of proteins in mouse tissues (DNP-hydrazone western blot); type: in vivo; conditions: 24 month old mice
[4] = test system: melanin and lipofuscin; experiment: Melanin and lipofuscin staining of mouse tissues; type: in vivo; conditions: mice at 22 months
Source text: Whole frozen tissues were sectioned with a microtome and fixed in 4% paraformaldehyde, Tissues were washed in PBS and the individual staining methods used in accordance with the manufacturer's recommendations. Total pixels from fluorescence in the images were quantified using Adobe Photoshop software CS2 (Adobe Systems), and normalized to a nuclear stain.

[5] = test system: human mesenchymal stem cells; experiment: Lipid droplet amount in mesenchymal stem cells; type: cell-based; conditions: day 14
Source text: Cell were harvested at day 14 for western blot and the protein expression amounts of the differentiation markers cd44, cd73, and cd90 were investigated. […] Another indicator of the stem cell differentiation is the determination of the amounts of lipid droplet in the cell. Fourteen-day cell passage is caused to increase lipid in the cell. It was observed that memantine treatment has prevented the amount of lipid droplet (FIG. 36D).

[6] = test system: human mesenchymal stem cells; experiment: MTT test of mesenchymal stem cells; type: cell-based; conditions: day 21

Compound: CNC1(c2ccccc2Cl)CCCCC1=O (stereo not drawn) [ketamin, 2-(2-chlorophenyl)-2-(methylamino)-cyclohexanone]
- Ub-YFP degredation ([1]; Hep3B expressing Ub-YFP): no effect
- YFP protein amount ([1]; Hep3B, western blot): did not decrease

Compound: CC12CC3CC(C)(C1)CC(N)(C3)C2 [memantine, 3,5-dimethyladamantan-1-amine]
- C. elegans survived compared to control ([2]; memantin started on day 7 or day 1): ~3 times
- C. elegans survived compared to control ([2]; memantin started on the 14th day): 67%
- worms survived compared to no-treatment ([2]; day 21): 4 times
- life span of C. elegans ([2]; log-rank (Kaplan-Meier)): increase
- oxidation of protein from lung tissue [3]: No significant change
- Oxidized proteins in liver, brain, kidney, skin and pancreas ([3]; memantin for 12 months): reduced
- amount of lipofuscin (liver) [4]: statistically decreased
- amount of melanin (skin) [4]: statistically decreased
- amount of lipid droplet [5]: prevented
- lifespan of human mesenchymal stem cells (MTT test) [6]: increase the lifespan
